Tests used:
SK-OV-3 = experiment: NCI 60 cell panel
VDR = molecular target: T1, VDR (Homo sapiens, UniProt P11473); experiment: VDR agonism by induction of CYP24 gene expression (RT/PCR); assay type: cell-based
T1 construct: endogenous in cells; host or cells: SCC25 human head and neck squamous carcinoma cells
T1 sequence (P11473 1-427): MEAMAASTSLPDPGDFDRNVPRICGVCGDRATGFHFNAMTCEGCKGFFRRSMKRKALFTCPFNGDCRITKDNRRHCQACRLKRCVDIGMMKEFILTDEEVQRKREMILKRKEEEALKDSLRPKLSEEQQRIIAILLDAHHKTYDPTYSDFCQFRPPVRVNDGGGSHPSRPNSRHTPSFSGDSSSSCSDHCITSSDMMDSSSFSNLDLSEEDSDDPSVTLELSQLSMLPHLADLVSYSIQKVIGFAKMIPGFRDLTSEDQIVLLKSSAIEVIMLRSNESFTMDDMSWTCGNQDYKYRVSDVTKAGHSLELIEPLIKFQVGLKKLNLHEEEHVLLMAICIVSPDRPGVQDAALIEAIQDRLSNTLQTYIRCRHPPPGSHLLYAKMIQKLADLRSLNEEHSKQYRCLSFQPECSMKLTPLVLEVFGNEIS
Procedure: Cell culture. Human head and neck squamous carcinoma cell lines SCC4 and SCC45 and mouse HNSCC line AT84 were purchased from American Type Culture Collection (Manassas, VA) and cultured under recommended conditions. Cells were split at 60-70% confluence, as follows: cells were washed with filtered PBS, split with a 5-10 min incubation with 1 ml Trypsin-EDTA (Invitrogen, Carlsbad, CA) in PBS, collected with medium. Following centrifugation, the supernatant was removed. Cell pellets were resuspended with DMEM-F12, and distributed on fresh media-containing dishes. For treatments, AT84 cells were split and 24h later medium was changed to DMEM + 10% charcoal-stripped FBS.
RNA isolation and RT/PCR analysis. […]. Proc. Nat. Acad. Sci. U.S.A. 105, 8250-55. and Lamblin, M.et al Bioorganic & Medicinal Chemistry (2010) 18:4119-4137. After treatment, cells were washed with PBS, homogenized with 1ml TRIzol Reagent (Invitrogen, Carlsbad, CA), kept at room temperature for 2-5 min, collected and kept at -80 °C for at least 1h. After, thawing 0.2 ml chloroform was added. After vigorous mixing and storing for 10min, mixtures were centrifuged (10,000rpm, 15 min, 4 °C) and the upper transparent layer was transferred to a new tube. 0.5 ml isopropanol was added and the new solution was mixed. After centrifuging at 4 °C, the supernatant was discarded and 1ml of 75% ethanol was added. After centrifuging and discarding the supernatant, the pellet was air-dried for 5-10 min, and then dissolved in ddH2O. RNA concentrations were measured using a spectrophotometer, and 1-3µg of RNA were loaded for reverse transcriptase reactions (total volume: 20 µl). 80µl of ddH2O was added to the RT-product, and 1.5µl of that was used as template for the PCR reaction. Reverse transcriptase (Super Script II) was purchased from Invitrogen (Carlsbad, CA). DNA polymerase and dNTP's were ordered from Fermentas (Glen Burnie, MD).
Test compounds (10 µM) were first screened for VDR agonism by analysis of induction of CYP24 gene expression in 1,25D-sensitive human SCC25 cells. […]. Consistent with binding to the VDR, induction of CYP24 by compound JF-B01, compound JF-B53 or compound 16 (JF-B54) was blocked (Fig. 1c). […]

SF-295 = experiment: NCI 60 cell panel
RPMI-8226 = experiment: NCI 60 cell panel
UO-31 = experiment: NCI 60 cell panel
NCI-H460 = experiment: NCI 60 cell panel
CCRF-CEM = experiment: NCI 60 cell panel
EKVX = experiment: NCI 60 cell panel
KM12 = experiment: NCI 60 cell panel
LOX IMVI = experiment: NCI 60 cell panel
BT-549 = experiment: NCI 60 cell panel
DU-145 = experiment: NCI 60 cell panel
MALME-3M = experiment: NCI 60 cell panel

Q: With CCC(CC)(c1ccc(OCC(=O)NO)c(C)c1)c1ccc(OCC(O)C(C)(C)C)c(C)c1 (racemic) [JF-B01, N-Hydroxy-2-(4-(3-(4-(2-hydroxy-3,3-dimethylbutoxy)-3-methylphenyl)pentan-3-yl)-2-methylphenoxy)acetamide] as the molecule, how does the GI50 (SK-OV-3; Homo sapiens, SK-OV-3) read?
A: 12.2 µM

Q: What about the CC50 (SK-OV-3; Homo sapiens, SK-OV-3, read-out: LC50) of the same molecule?
A: 49.6 µM

Q: And the TGI (SK-OV-3; Ovarian Cancer, SK-OV-3)?
A: 2.46E-5

Q: And the “induction of CYP24 by the compound was blocked” value (VDR; Fig. 1c, blocking agent not given)?
A: blocked

Q: And the “VDR agonist potency compared with that of LG190178” value (VDR; SCC25 cells, Fig. 1b)?
A: equal to or greater

Q: And the “VDR agonist potency, fold lower than that of 1,25D” value (VDR; SCC25 cells, Fig. 1b)?
A: approximately 10 fold

Q: What about the “VDR agonist activity and potency, induction of CYP24 gene expression” value (VDR; SCC25 cells, Fig. 1b, 1d) of the same molecule?
A: efficacious agonist

Q: What about the “VDR agonism by induction of CYP24 gene expression” value (VDR; screen at 10 µM, SCC25 cells, Fig. 1a) of the same molecule?
A: agonist activity

Q: What about the TGI (SF-295; CNS Cancer, SF-295) of the same molecule?
A: 2.02E-5

Q: What about the GI50 (SF-295; Homo sapiens, SF-295) of the same molecule?
A: 7.61 µM

Q: What about the CC50 (SF-295; Homo sapiens, SF-295, read-out: LC50) of the same molecule?
A: 44.9 µM

Q: What about the GI50 (RPMI-8226; Homo sapiens, RPMI-8226) of the same molecule?
A: 1.12 µM

Q: What about the CC50 (RPMI-8226; Homo sapiens, RPMI-8226, read-out: LC50) of the same molecule?
A: 82.5 µM

Q: And the TGI (RPMI-8226; Leukemia, RPMI-8226)?
A: 8.68E-6

Q: And the GI50 (UO-31; Homo sapiens, UO-31)?
A: 1.92 µM

Q: What about the CC50 (UO-31; Homo sapiens, UO-31, read-out: LC50) of the same molecule?
A: 26.2 µM

Q: What about the TGI (UO-31; Renal Cancer, UO-31) of the same molecule?
A: 6.95E-6

Q: What about the GI50 (NCI-H460; Homo sapiens, NCI-H460) of the same molecule?
A: 1.6 µM

Q: And the CC50 (NCI-H460; Homo sapiens, NCI-H460, read-out: LC50)?
A: 9.51 µM

Q: What about the TGI (NCI-H460; Non-Small Cell Lung Cancer, NCI-H460) of the same molecule?
A: 3.90E-6

Q: What about the GI50 (CCRF-CEM; Homo sapiens) of the same molecule?
A: 0.576 µM

Q: What about the CC50 (CCRF-CEM; Homo sapiens, read-out: LC50) of the same molecule?
A: 42.2 µM

Q: What about the TGI (CCRF-CEM; Leukemia) of the same molecule?
A: 4.80E-6

Q: And the GI50 (EKVX; Homo sapiens)?
A: 2.87 µM

Q: What about the CC50 (EKVX; Homo sapiens, read-out: LC50) of the same molecule?
A: 35.3 µM

Q: And the TGI (EKVX; Non-Small Cell Lung Cancer)?
A: 1.24E-5

Q: What about the TGI (KM12; Colon Cancer, KM12) of the same molecule?
A: 8.17E-6

Q: What about the GI50 (KM12; Homo sapiens, KM12) of the same molecule?
A: 2.15 µM

Q: And the CC50 (KM12; Homo sapiens, KM12, read-out: LC50)?
A: 28.8 µM

Q: And the GI50 (LOX IMVI; Homo sapiens)?
A: 0.183 µM

Q: What about the CC50 (LOX IMVI; Homo sapiens, read-out: LC50) of the same molecule?
A: 0.602 µM

Q: What about the TGI (LOX IMVI; Melanoma) of the same molecule?
A: 3.32E-7

Q: What about the TGI (BT-549; Breast Cancer, BT-549) of the same molecule?
A: 7.74E-6

Q: What about the GI50 (BT-549; Homo sapiens, BT-549) of the same molecule?
A: 2.03 µM

Q: And the CC50 (BT-549; Homo sapiens, BT-549, read-out: LC50)?
A: 28.5 µM

Q: And the GI50 (DU-145; Homo sapiens, DU-145)?
A: 13 µM

Q: What about the CC50 (DU-145; Homo sapiens, DU-145, read-out: LC50) of the same molecule?
A: 50.6 µM

Q: And the TGI (DU-145; Prostate Cancer, DU-145)?
A: 2.56E-5

Q: What about the GI50 (MALME-3M; Homo sapiens, Malme-3M) of the same molecule?
A: 2.33 µM

Q: And the CC50 (MALME-3M; Homo sapiens, Malme-3M, read-out: LC50)?
A: 35.7 µM

Q: What about the TGI (MALME-3M; Melanoma, MALME-3M) of the same molecule?
A: 1.07E-5

From patent EP2794556B1, “BIS-(ARYL/HETEROARYL)-METHYLENE COMPOUNDS, PHARMACEUTICAL COMPOSITIONS CONTAINING SAME AND THEIR USE FOR TREATING CANCER” (Gleason, James L., priority 2011, dated 2013)
